Values belong to the molecule of their own block, whether it stands above or below them.
How the values were obtained:
[1] = Photostability of compound 1 under UV (xenon lamp) irradiation, HPLC/UV-DAD measurement; type: physicochemical; conditions: for photodegradation protection of compound 1 (in words): Example 8, anionic and cationic surfactants; for % remaining (compound 1) / HPLC % remaining: 25 ppm compound 1 in water; for % remaining (compound 1): irradiated 120 min; for Time for complete degradation: compound 1 in water, HPLC % remaining reached 0
Method: (§1) The photostability of compound 1 under UV irradiation was studied as follows.
(§2) The sample to be irradiated was introduced into a transparent glass bottle, placed on a plate and then subjected to irradiation with a xenon lamp (Xenon lamp Suntest XLS+, Atlas Material Testing Technology LLC). The lamp was set to 650 W/m^2, the temperature was kept constant at 45° C. and the plate was turned slowly in order to assure homogeneous UV-exposure of the entire sample. After a fixed interval, the sample was removed and the content of compound 1 remaining was measured by HPLC and Fluorimetry.
Firstly, a standard solution containing 26.44 mg caffeine in 11 LC-MS grade methanol was prepared. For samples containing 10 ppm of compound 1, the sample was placed in a vial, diluted to 500 μl and 50 μl of the standard solution was added; for samples containing 25 ppm of compound 1, the sample was placed in a vial, diluted to 400 μl and 200 μl of the standard solution was added. Each vial was protected from exposure to light by being wrapped in aluminium foil.
The relative content of compound 1 in irradiated samples was calculated against the non-irradiated reference (set at 100%) using an Agilent Technologies 1200 series HPLC equipped with a degasser G1379B, a binary pump G1312B (large-volume mixer was by-passed), a well-plate high performance autosampler G1367D, a thermostatted column compartment G1316B and a UV (DAD) detector G1315C. The column (ZORBAX Eclipse Plus C18 600Bar 2.1×100 mm, 1.8 μm (#959764-902) was set at 60° C.±0.1° C. Two solvents were used: Solvent “A” was formic acid 0.1% in water, ULC/MS, Biosolve (ready-mix cat.# 23244102); solvent “B” was formic acid 0.1% in acetonitrile, ULC/MS, Biosolve (ready-mix cat. #01934125). The solvent flow rate was 0.500 ml/min; Injection: 2 μl.
Solvent gradient: 0 min-1 min: 95% A • 1 min-8 min: 95% A à 100% B • 8 min-10 min: 100% B • 10 min-12 min: 100% B à 95% A • Post-equilibration 1 min
Detector: UV-DAD: • Caffeine (internal standard): signal 273 nm, Bw 16 • Compound 1: signal 264 nm, Bw 8 • signal 230 nm, Bw 8
The signal at 264 nm was used for the quantification calculations.

[2] = Photostability of compound 1 under UV (xenon lamp) irradiation, fluorimetry measurement; type: physicochemical; conditions: 25 ppm compound 1 in water
Method: as §1, §2
The sample to be studied was placed in quartz cell (width lcm). Fluorescence was detected at an angle 90° to the incident exciting beam using a Fluorolog-3 spectrofluorometer (Model FL3-22, Jobin Yvon-Spex Instruments SA, Inc). […] Excitation and emission spectra of each sample were provided.
For calibration, the excitation and emission spectra of compound 1 solutions were measured before and after irradiation. The intensity of the emission maximum of the unirradiated solution was given the value as 100%. The ratio between the intensities of emission maxima of irradiated and unirradiated samples was measured and the results calculated as a percentage.

Structure (SMILES): CCCCCCCCCCCCCCCC[N+](C)(C)C.[Br-] [CTAB, Cetyl trimethylammonium bromide, reference compound]
photodegradation protection of compound 1 (in words) [1]: little or no photodegradation protection

Structure (SMILES): CCCCCCCCCCCCOS(=O)(=O)[O-].[Na+] [SDS, Sodium dodecyl sulphate, reference compound]
photodegradation protection of compound 1 (in words) [1]: little or no photodegradation protection

Fluorimetry % remaining ([2]; time of irradiation 0 min (unirradiated solution given the value 100%)): 100% | Fluorimetry % remaining ([2]; time of irradiation 5 min): 91.3% | Fluorimetry % remaining ([2]; time of irradiation 10 min): 78.5% | Fluorimetry % remaining ([2]; time of irradiation 20 min): 52.2% | Fluorimetry % remaining ([2]; time of irradiation 30 min): 38.7% | Fluorimetry % remaining ([2]; time of irradiation 45 min): 27.8% | Fluorimetry % remaining ([2]; time of irradiation 60 min): 21.3% | Fluorimetry % remaining ([2]; time of irradiation 90 min): 16.2% | Fluorimetry % remaining ([2]; time of irradiation 120 min): 12.7% | Fluorimetry % remaining ([2]; time of irradiation 180 min): 6.4% | % remaining (compound 1) ([1]; Polysorbate 80 concentration 0.0001572 % w/w): 0% | % remaining (compound 1) ([1]; Polysorbate 80 concentration 0.0002145 % w/w): 0% | % remaining (compound 1) ([1]; Polysorbate 80 concentration 0.001572 % w/w): 0% | % remaining (compound 1) ([1]; Polysorbate 80 concentration 0.008 % w/w): 0% | % remaining (compound 1) ([1]; Polysorbate 80 concentration 0.01 % w/w): 0% | % remaining (compound 1) ([1]; Polysorbate 80 concentration 0.05 % w/w): 6.55% | % remaining (compound 1) ([1]; Polysorbate 80 concentration 0.1 % w/w): 6.81% | % remaining (compound 1) ([1]; Polysorbate 80 concentration 0.5 % w/w): 12.97% | % remaining (compound 1) ([1]; Polysorbate 80 concentration 1 % w/w): 22.24% | % remaining (compound 1) ([1]; Polysorbate 80 concentration 4 % w/w): 47% | % remaining (compound 1) ([1]; Polysorbate 80 concentration 8.5 % w/w): 88.57% | % remaining (compound 1) ([1]; Polysorbate 80 concentration 15 % w/w): 97.03% | HPLC % remaining ([1]; time of irradiation 0 min (non-irradiated reference set at 100%)): 100% | HPLC % remaining ([1]; time of irradiation 5 min): 79.7% | HPLC % remaining ([1]; time of irradiation 10 min): 62.2% | HPLC % remaining ([1]; time of irradiation 20 min): 46.3% | HPLC % remaining ([1]; time of irradiation 30 min): 32.3% | HPLC % remaining ([1]; time of irradiation 45 min): 24.8% | HPLC % remaining ([1]; time of irradiation 60 min): 18.7% | HPLC % remaining ([1]; time of irradiation 90 min): 6.9% | HPLC % remaining ([1]; time of irradiation 120 min): 0% | HPLC % remaining ([1]; time of irradiation 180 min): 0% | Time for complete degradation ([1]; initial concentration 5 ppm): 45 min | Time for complete degradation ([1]; initial concentration 10 ppm): 60 min | Time for complete degradation ([1]; initial concentration 15 ppm): 90 min | Time for complete degradation ([1]; initial concentration 25 ppm): 120 min | Time for complete degradation ([1]; initial concentration 40 ppm): >180 min
Structure (SMILES): CCCNC(=O)C(C)(C)COc1cccc2c1C(N)=NS(=O)(=O)N2 [Compound 1]

Source: patent US20130064931A1, “INGREDIENT DELIVERY SYSTEM” (FIRMENICH SA, priority 2010, published 2013)
